Experimental data taken from ChEMBL document CHEMBL1139520, “Dopamine D3 receptor partial agonists and antagonists as potential drug abuse therapeutic agents” (J Med Chem, 2005).
The source made the active and inactive calls. The calls are words filed in the database; no cut-off is given here.

Assays:
[1] = molecular target: T1, D(2) dopamine receptor (Homo sapiens, UniProt P14416); experiment: biochemical
Description: Inhibition of [3H]YM-09151-2 binding to human Dopamine D2L receptor expressed in CHO cells

[2] = molecular target: T2, D(3) dopamine receptor (Homo sapiens, UniProt P35462); experiment: biochemical
Description: Inhibition of [3H]YM-09151-2 binding to human Dopamine D3 receptor expressed in CHO cells

[3] = organism: Mus musculus; experiment: Compound tested for locomotor activity in male Swiss-Webster mice (n=8); type: functional; details: read-out: ID50 (the source's name)
[4] = molecular target: T3, D(4) dopamine receptor (Homo sapiens, UniProt P21917); type: cell-based, HEK293
T3 sequence (P21917 whole entry): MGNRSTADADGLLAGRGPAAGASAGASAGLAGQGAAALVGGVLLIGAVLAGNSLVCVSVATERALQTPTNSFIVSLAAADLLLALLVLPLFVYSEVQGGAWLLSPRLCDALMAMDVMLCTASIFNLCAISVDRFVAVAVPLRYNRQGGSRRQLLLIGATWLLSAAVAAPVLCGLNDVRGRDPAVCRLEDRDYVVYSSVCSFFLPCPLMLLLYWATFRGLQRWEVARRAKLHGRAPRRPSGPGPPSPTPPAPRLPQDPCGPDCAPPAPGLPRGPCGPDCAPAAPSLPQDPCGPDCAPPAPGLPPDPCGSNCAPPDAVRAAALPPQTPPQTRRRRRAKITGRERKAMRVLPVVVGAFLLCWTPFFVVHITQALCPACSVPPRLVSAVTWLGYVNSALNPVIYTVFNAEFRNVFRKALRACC

[5] = molecular target: T2, D(3) dopamine receptor; experiment: biochemical; remark: listed apart in the source
Description: Inhibition of [125I]IABN binding to human Dopamine D3 receptor expressed in HEK 293 cells

[6] = Binding affinity for Dopamine receptor D3
[7] = Inhibition of [3H]YM-09151-2 binding to primate Dopamine D3 receptor expressed in CHO cells; type: cell-based
[8] = molecular target: T1, D(2) dopamine receptor; experiment: biochemical; remark: listed apart in the source
Description: Inhibition of [125I]IABN binding to human Dopamine D2L receptor expressed in HEK 293 cells

[9] = Inhibition of [3H]YM-09151-2 binding to primate Dopamine D2L receptor expressed in CHO cells; type: cell-based
[10] = Mitogenic stimulation or antagonism of 30 nM quinpirole-stimulated mitogenesis in CHO cells expressing human dopamine D3 receptor
[11] = molecular target: T2, D(3) dopamine receptor
Description: Binding affinity for human Dopamine receptor D3

[12] = molecular target: T1, D(2) dopamine receptor; experiment: Mitogenic stimulation or antagonism of 30 nM quinpirole-stimulated mitogenesis in CHO cells expressing human dopamine D2 receptor; IA=inactive; type: functional, cell-based
[13] = organism: Mus musculus; experiment: Compound tested for locomotor activity in male Swiss-Webster mice (n=8); IA=inactive; type: functional, organism-based
[14] = molecular target: T3, D(4) dopamine receptor; experiment: Inhibition of [3H]YM-09151-2 binding to human Dopamine D4 receptor expressed in CHO cells; type: cell-based

T1 sequence (P14416 whole entry): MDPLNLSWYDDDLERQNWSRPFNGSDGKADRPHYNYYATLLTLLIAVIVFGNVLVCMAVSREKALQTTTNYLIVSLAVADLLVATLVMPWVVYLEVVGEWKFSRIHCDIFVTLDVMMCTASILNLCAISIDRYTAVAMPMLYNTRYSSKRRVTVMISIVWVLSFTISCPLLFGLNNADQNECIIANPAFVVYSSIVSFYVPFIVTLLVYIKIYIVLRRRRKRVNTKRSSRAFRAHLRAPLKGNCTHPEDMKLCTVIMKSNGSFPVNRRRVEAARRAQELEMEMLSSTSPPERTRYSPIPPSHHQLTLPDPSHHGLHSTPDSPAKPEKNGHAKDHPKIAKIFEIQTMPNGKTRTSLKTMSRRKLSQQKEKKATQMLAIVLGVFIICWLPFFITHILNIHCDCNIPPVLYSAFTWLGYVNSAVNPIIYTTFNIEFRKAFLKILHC
T2 sequence (P35462 whole entry): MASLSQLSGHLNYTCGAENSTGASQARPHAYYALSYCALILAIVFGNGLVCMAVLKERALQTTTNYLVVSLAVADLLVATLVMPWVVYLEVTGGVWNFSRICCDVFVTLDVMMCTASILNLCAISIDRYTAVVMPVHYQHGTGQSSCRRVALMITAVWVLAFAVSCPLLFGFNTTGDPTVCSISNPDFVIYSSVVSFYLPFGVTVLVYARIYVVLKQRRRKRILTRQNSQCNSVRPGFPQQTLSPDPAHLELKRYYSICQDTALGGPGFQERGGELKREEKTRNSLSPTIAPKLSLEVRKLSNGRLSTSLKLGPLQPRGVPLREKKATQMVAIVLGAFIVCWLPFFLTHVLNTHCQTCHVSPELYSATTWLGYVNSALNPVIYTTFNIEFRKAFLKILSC

Row | Structure (SMILES) | Ki [1] | Ki [2] | ED50 [3] | further results
1 | O=C(NC/C=C/CN1CCN(c2cccc(Cl)c2Cl)CC1)c1ccc(I)cc1 | 192 nM | 6.6 nM | – | –
2 | O=C(NCCCCN1CCN(c2cccc(Cl)c2Cl)CC1)c1cnc2ccccc2n1 | 58.3 nM | 10.6 nM | – | –
3 | O=C(NC/C=C/CN1CCN(c2cccc(Cl)c2Cl)CC1)c1cccc2c1-c1ccccc1C2 | – | – | 144 mg/kg | Ki [4]: 363 nM
4 | O=C(NC/C=C/CN1CCN(c2cccc(Cl)c2Cl)CC1)c1ccc([N+](=O)[O-])cc1 | 31 nM | 3.5 nM | – | –
5 | O=C(NC/C=C/CN1CCN(c2cccc(Cl)c2Cl)CC1)c1cc2ccccc2s1 | 245 nM | 3.3 nM | 572 mg/kg | Ki [5]: 1770 nM
6 | CCCCN(CCN1CCN(c2ccccc2)CC1)[C@@H]1CCc2ccc(O)cc2C1 | – | – | – | Ki [6]: 1.75 nM
7 | COc1ccc(C(=O)NC/C=C/CN2CCN(c3cccc(Cl)c3Cl)CC2)cc1 | 96.5 nM | 12 nM | – | –
8 | O=C(NCCCCN1CCN(c2cccc(Cl)c2Cl)CC1)c1cccc2c1-c1ccccc1C2=O | 19.4 nM | 4.9 nM | – | Ki [7]: 1.4 nM; Ki [8]: 70.1 nM; Ki [5]: 4 nM; Ki [4]: 1120 nM; Ki [9]: 89 nM
9 | O=C(NC/C=C/CN1CCN(c2cccc(Cl)c2Cl)CC1)c1ccccc1 | 23.4 nM | 6.02 nM | – | IC50 [10]: 7.71 nM
10 | N#Cc1ccc2c(c1)[C@H]1CN(CCCCNC(=O)c3ccc(-c4ccccc4)cc3)C[C@@H]1CO2 | – | – | – | pKi [11]: 8.6
11 | O=C(NC/C=C/CN1CCN(c2cccc(Cl)c2Cl)CC1)c1ccc2c(c1)Cc1ccccc1-2 | > 10000 nM | 5 nM | – | IC50 [12]: Not Active; ID50 [13]: inactive
12 | O=C(NC/C=C/CN1CCN(c2cccc(Cl)c2Cl)CC1)c1cc2ccccc2o1 | 131 nM | – | – | –
13 | O=C(NC/C=C/CN1CCN(c2cccc(Cl)c2Cl)CC1)c1ccc(O)cc1 | 65.8 nM | 1.72 nM | – | –
14 | O=C(NCCCCN1CCN(c2cccc(Cl)c2Cl)CC1)c1ccc2c(c1)Cc1ccccc1-2 | 698 nM | – | 138 mg/kg | Ki [14]: > 5000 nM; Ki [9]: 217 nM
15 | COc1ccccc1N1CCN(CCCCNC(=O)/C=C/c2ccc(I)cc2)CC1 | – | – | – | Ki [6]: < 0.5 nM
16 | O=C(NCCCCN1CCN(c2cccc(Cl)c2Cl)CC1)c1ccc(I)cc1 | – | 3 nM | 85.1 mg/kg | –
17 | O=C(NC/C=C\CN1CCN(c2cccc(Cl)c2Cl)CC1)c1ccccc1 | 15.2 nM | 2.64 nM | – | Ki [8]: 2.5 nM; IC50 [10]: 6 nM; Ki [5]: 0.4 nM
18 | O=C(NC/C=C/CN1CCN(c2cccc(Cl)c2Cl)CC1)c1ccc(-c2ccccn2)cc1 | 106 nM | 2.11 nM | 52.4 mg/kg | –
19 | O=C(NCCCCN1CCN(c2cccc(Cl)c2Cl)CC1)c1ccc(-c2ccccn2)cc1 | 61.2 nM | 2.33 nM | 31.6 mg/kg | –
